From patent US20210137948A1, “TREATMENT OF INFECTIONS CAUSED BY NEISSERIA GONOCOCCUS USING A HALOGENATED SALICYLANILIDE” (priority 2018, published 2021)
Converted amounts (≈) assume the structure as drawn. Like-named read-outs stand apart in the source and are kept apart here.

Columns and labels:
Enterobacter cloacae = assay: Broth microdilution MIC testing; type: cell-based; details: Enterobacter cloacae MMX 6089, susceptible; for MIC: read-out: Minimal Inhibitory Concentration
Experimental: (§1) Broth microdilution assay: Mueller Hinton II broth (MHB II, BBL, BD, catalog no. 212322; lot no. 5257869) was used for testing most aerobes.
(§2) MIC values were determined using a broth microdilution procedure described by CLSI, see reference (1). Automated liquid handlers (Multidrop 384, Labsystems, Helsinki, Finland; Biomek 2000 and Biomek FX, Beckman Coulter, Fullerton Calif.) were used to conduct serial dilutions and liquid transfers.
(§3) The wells in Columns 2 through 12 of two standard 96-well microdilution plates (Costar 3795, Corning Inc., Corning, N.Y.) were filled with 150 μL of diluent specific to the compound tested. Three hundred microliters of each comparator and investigational drug solution (40× or 100×) was added to one well in Column 1 of the plates. The Biomek 2000 was used to complete the serial transfers through Column 11. The wells of Column 12 contained no drug and were the organism growth control wells. These panels were the “mother plates.”
(§4) Because drugs were prepared at either 40× or 100×, the “daughter plates” were loaded with 185-188 μL of the appropriate test media for the tested organism, using the Multidrop 384 or by hand. The daughter plates were prepared on the Biomek FX instrument, which transferred 2-5 μL of drug solution from each well of a mother plate to the corresponding well of each daughter plate in a single step. The wells of the daughter plates ultimately contained 185-188 μL of broth appropriate to the organism, 2-5 μL of drug solution, and 10 μL of bacterial inoculum prepared in broth.
(§5) Standardized inoculum of each organism was prepared per CLSI methods, see reference (1). The inoculum for each organism was dispensed into sterile reservoirs divided by length (Beckman Coulter), and the Biomek 2000 was used to inoculate the plates. Daughter plates were placed on the Biomek 2000 work surface in reverse orientation so that inoculation took place from low to high drug concentration. The Biomek 2000 delivered 10 μL of standardized inoculum into each well. This yielded a final cell density in the daughter plates of approximately 5×10^5 CFU/mL.
(§6) Plates were stacked 3 high, covered with a lid on the top plate, placed in plastic bags, and incubated at 35° C. for approximately 18 to 20 hr. Following incubation, the microplates were removed from the incubator and viewed from the bottom using a plate viewer. […] The MIC was read and recorded as the lowest concentration of drug that inhibited visible growth of the organism.

Pseudomonas aeruginosa [1] = assay: Broth microdilution MIC testing; type: cell-based; details: Pseudomonas aeruginosa MMX 103/ATCC 27853, susceptible, QC; for MIC: ATCC27853, read-out: Minimal Inhibitory Concentration
Experimental: as §1, §2, §3, §4, §5, §6

[2] = system: Stenotrophomonas maltophila; assay: Broth microdilution MIC testing; type: cell-based; details: Stenotrophomonas maltophila MMX 4746, susceptible; for MIC: Stenotrophomonas sp. LMG 10879, read-out: Minimal Inhibitory Concentration
Experimental: as §1, §2, §3, §4, §5, §6

Klebsiella pneumoniae = assay: Broth microdilution MIC testing; type: cell-based; details: Klebsiella pneumoniae MMX 214/ATCC 13883, susceptible; for MIC: ATCC13883, read-out: Minimal Inhibitory Concentration
Experimental: as §1, §2, §3, §4, §5, §6

Escherichia coli [3] = assay: Broth microdilution MIC testing; type: cell-based; details: for MIC: Escherichia coli, read-out: Minimal Inhibitory Concentration
Experimental: as §1, §2, §3, §4, §5, §6

Acinetobacter baumannii = assay: Broth microdilution MIC testing; type: cell-based; details: Acinetobacter baumannii MMX 1630/ATCC 19606, susceptible; for MIC: ATCC19606, read-out: Minimal Inhibitory Concentration
Experimental: as §1, §2, §3, §4, §5, §6

Escherichia coli [4] = details: Escherichia coli MMX 102/ATCC 25922, range in parentheses; cited from earlier work
Pseudomonas aeruginosa [5] = details: Pseudomonas aeruginosa MMX 103/ATCC 27853, range in parentheses; cited from earlier work
[6] = system: N. gonorrhoeae ATCC49226/MMX 683; assay: Agar dilution MIC assay (Example 1); type: cell-based, Neisseria gonorrhoeae; details: Neisseria gonorrhoeae MMX 683/ATCC 49226, QC
Experimental: Neisseria gonococcus (N. gonorrhoeae) were assayed using a reference agar dilution method, see reference (2). Drug dilutions and drug-supplemented agar plates were prepared manually. Neisseria gonococcus was grown on Chocolate agar in a CO2 incubator overnight at 35° C. prior to assay. […] The MIC was read per CLSI guidelines, see reference (3).

[7] = Escherichia coli MMX 102/ATCC 25922, QC strain

MIC ([6]; ATCC49226, read-out: Minimal Inhibitory Concentration) [µg/mL] | SMILES | MIC (Enterobacter cloacae) [µg/mL] | MIC (Pseudomonas aeruginosa [1]) [µg/mL] | MIC [2] [µg/mL] | MIC (Klebsiella pneumoniae) [µg/mL] | MIC (Escherichia coli [3]; ATCC25922) [µg/mL] | MIC (Escherichia coli [3]) [µg/mL] | MIC (Acinetobacter baumannii) [µg/mL] | CLSI QC range of MIC (Escherichia coli [4]) | CLSI QC range of MIC (Pseudomonas aeruginosa [5]) | Minimal Inhibitory Concentration [6] [µg/mL] | Minimal Inhibitory Concentration [2] [µg/mL] | Minimal Inhibitory Concentration (Acinetobacter baumannii) [µg/mL] | Minimal Inhibitory Concentration (Enterobacter cloacae) [µg/mL] | Minimal Inhibitory Concentration (Klebsiella pneumoniae) [µg/mL] | Minimal Inhibitory Concentration (Escherichia coli [3]; [7]) [µg/mL] | Minimal Inhibitory Concentration (Pseudomonas aeruginosa [1]) [µg/mL] | Minimal Inhibitory Concentration (Escherichia coli [3]; Escherichia coli MMX 120, acrAB efflux pump knockout) [µg/mL]
– | NCC[C@H](O)C(=O)N[C@@H]1C[C@H](N)[C@@H](O[C@H]2O[C@H](CN)[C@@H](O)[C@H](O)[C@H]2O)[C@H](O)[C@H]1O[C@H]1O[C@H](CO)[C@@H](O)[C@H](N)[C@H]1O [Amikacin] | 1 (≈ 1.71 µM) | 2 (≈ 3.42 µM) | 2 (≈ 3.42 µM) | 0.5 (≈ 0.854 µM) | 4 (≈ 6.83 µM) | 0.5 (≈ 0.854 µM) | 16 (≈ 27.3 µM) | (0.5-4) μg/ml | (1-4) μg/ml | – | – | – | – | – | – | – | –
– | CC(C)(O/N=C(\C(=O)N[C@@H]1C(=O)N2C(C(=O)[O-])=C(C[n+]3ccccc3)CS[C@H]12)c1csc(N)n1)C(=O)O [Ceftazidime] | 8 (≈ 14.6 µM) | 1 (≈ 1.83 µM) | 4 (≈ 7.32 µM) | 0.5 (≈ 0.915 µM) | 0.25 (≈ 0.457 µM) | 0.12 (≈ 0.22 µM) | 4 (≈ 7.32 µM) | (0.06-0.5) μg/ml | (1-4) μg/ml | – | – | – | – | – | – | – | –
– | CC1=C(C(=O)O)N2C(=O)[C@@H](NC(=O)[C@H](N)c3ccccc3)[C@H]2SC1 [Cephalexin] | > 32 | > 32 | > 32 | 4 (≈ 11.5 µM) | 8 (≈ 23 µM) | 8 (≈ 23 µM) | > 32 | – | – | – | – | – | – | – | – | – | –
0.004 (≈ 0.0121 µM) | O=C(O)c1cn(C2CC2)c2cc(N3CCNCC3)c(F)cc2c1=O [Ciprofloxacin] | – | – | – | – | – | – | – | – | – | 0.004 | – | – | – | – | – | – | –
– | C[C@H]1c2cccc(O)c2C(=O)C2=C(O)[C@]3(O)C(=O)C(C(N)=O)=C(O)[C@@H](N(C)C)[C@@H]3[C@@H](O)[C@@H]21 [Doxycycline] | 1 (≈ 2.25 µM) | > 8 | 0.5 (≈ 1.13 µM) | 1 (≈ 2.25 µM) | 0.5 (≈ 1.13 µM) | 0.25 (≈ 0.563 µM) | 0.5 (≈ 1.13 µM) | – | – | – | 0.5 | 0.5 | – | – | – | – | –
– | C[C@H]1COc2c(N3CCN(C)CC3)c(F)cc3c(=O)c(C(=O)O)cn1c23 [Levofloxacin] | 0.03 (≈ 0.083 µM) | 1 (≈ 2.77 µM) | 0.5 (≈ 1.38 µM) | 0.03 (≈ 0.083 µM) | 0.015 (≈ 0.0415 µM) | – | 0.5 (≈ 1.38 µM) | – | – | – | 0.5 | 0.5 | 0.03 | 0.03 | 0.015 | – | –
– | C[C@@H](O)[C@H]1C(=O)N2C(C(=O)O)=C(S[C@@H]3CN[C@H](C(=O)N(C)C)C3)[C@H](C)[C@H]12 [Meropenem] | 0.06 (≈ 0.156 µM) | 0.25 (≈ 0.652 µM) | 2 (≈ 5.22 µM) | 0.03 (≈ 0.0782 µM) | 0.015 (≈ 0.0391 µM) | 0.015 (≈ 0.0391 µM) | 1 (≈ 2.61 µM) | (0.008-0.06) μg/ml | (0.12-1) μg/ml | – | – | – | – | 0.03 | 0.015 | 0.25 | 0.015
